Data on five compounds can be found in patent publication US9352049B2, “Ligand-therapeutic agent conjugates, silicon-based linkers, and methods for making and using them” (Albany Molecular Research, Inc., priority 2013, dated 2016).

Counter-ions that a name gives are not always drawn. Like-named read-outs stand apart in the source and are kept apart here. A value given as a limit tells only on which side of the number the result lay.

In series [1] the test system is FR-negative human lung carcinoma A549 cells. Briefly: cells. Type of series: cell-based. As to conditions: for IC50: read-out: IC50, Inhibition of Cell Growth by the PrestoBlue Method; for inhibition at 10 µM: read-out: Percentage inhibition at the highest concentration tested (10 μM). How it is done:
(§1) Folate receptor (FR)-positive KB cells (Human) from European Collection of Cell Cultures (ECACC) [Catalogue #94050408] or FR-negative human lung carcinoma A549 cells from American Type Culture Collection (ATCC) [Catalogue # CCL-185] were maintained in T75 flasks in folic acid-free RPMI 1640 medium (Invitrogen, catalogue no. 27016021) containing 10% fetal bovine serum (FBS; Invitrogen, catalogue no. 16140-071) and penicillin/streptomycin (Invitrogen, catalogue no. 15140-122) at 37° C., 5% CO2.
(§2) Cells were harvested from their maintenance cultures and seeded in 96-well plates at a density of 10000 cells per well in 100 μL folic acid-free RPMI 1640 medium and incubated at 37° C., 5% CO2 for 20-24 hours. Thirty minutes prior to compound treatment, spent medium was removed and replaced with 100 μL fresh folic acid-free RPMI 1640 medium either as such, or supplemented with 100 μmol/L folic acid. The test compounds were diluted to three times their desired final concentrations in the culture medium from their DMSO stocks. […] Following compound treatment, the cells were washed thrice with 100 μL medium and incubated with 180 μL fresh medium for 72 hours. To assess cell viability, 20 μL of PrestoBlue reagent (Invitrogen, catalogue # A-13261) was added to the wells and the plates were further incubated for 1 hour at 37° C. The PrestoBlue reagent contains a cell-permeant dye, resazurin, which is blue in color and virtually nonfluorescent. When added to cells, it is reduced by the mitochondrial enzymes in viable cells to red, highly fluorescent resorufin. Resazurin reduction is proportional to the number of metabolically active cells and therefore can be measured quantitatively. Following incubation with the PrestoBlue reagent for 1 hour, fluorescence corresponding to the resorufin dye was read on a Synergy 4 multimode microplate reader (Biotek Instruments) with the excitation and emission wavelengths set at 540 nm and 590 nm respectively. The data was analysed using XLFit and the percentage inhibition of cell proliferation was calculated.

In series [2] the test system is Folate receptor (FR)-positive KB cells. Briefly: cells. As to conditions: for IC50: read-out: IC50, Inhibition of Cell Growth by the PrestoBlue Method; for inhibition at 10 µM: KB, read-out: Percentage inhibition at the highest concentration tested (10 μM). Format: cell-based, Human. How it is done:
as §1, §2

Series [3] is described as follows: Cleavage study of silyl conjugates at pH 7.4 (THF:0.01 M PBS buffer, 37° C.). Format: physicochemical. As to conditions: THF:0.01 M PBS buffer (pH 7.4), 37° C., over 20 hours. As for the experimental part:
To study the release properties of the silyl conjugates, the conjugates were subject to hydrolysis conditions at both pH 7.4 and pH 4.5 to simulate blood and endosomes/lysosome environments, respectively.
Example 12 and Example 15 were dissolved in THF:0.01 M PBS buffer (pH 7.4) and heated to 37° C. with stirring for over 20 hours. […] Additionally, Example 11 was trapped with methyl-3-mercaptopropionate to approximate a bioconjugate.

[4] abbreviates: Homo sapiens, No FA, incubation 2 h.
Setting [5] is: Homo sapiens, No FA, incubation 4 h.
Where [6] appears, read: Homo sapiens, No FA, incubation 8 h.
[7] abbreviates: Homo sapiens, No FA, incubation 16 h.

As to `CC[C@]1(O)C[C@H]2CN(CCc3c([nH]c4ccccc34)[C@@](C(=O)OC)(c3cc4c(cc3OC)N(C)[C@@H]3C45CCN4CC=C[C@](CC)([C@H]45)[C@@H](O)[C@]3(O)C(=O)OC)C2)C1` (some centres unmarked) [4-desacetylvinblastine, reference compound], the IC50 in series [1] (No FA, incubation 2 h) was determined as 4.6 µM; in series [1] (No FA, incubation 4 h) it was 0.633 µM; in series [1] (No FA, incubation 8 h), 0.129 µM; in series [1] (No FA, incubation 16 h) it was 0.057 µM; in series [2] (No FA, incubation 2 h), 0.045 µM; in series [2] (No FA, incubation 4 h) it was 0.01 µM. For the same compound, the half-maximal inhibitory concentration (IC50) came out at 0.002 µM in series [2] (No FA, incubation 8 h) and 0.003 µM in series [2] (No FA, incubation 16 h).
Consider `Nc1nc(O)c2nc(CNc3ccc(C(=O)N[C@@H](CCC(=O)NCCOCCOCCNC(=O)CCCC[Si]4(O)CCCCC4)C(=O)O)cc3)cnc2n1` [Compound Z, (S)-2-(4-(((2-amino-4-hydroxypteridin-6-yl)methyl)amino)benzamido)-20-(1-hydroxysilinan-1-yl)-5,16-dioxo-9,12-dioxa-6,15-diazaicosan-1-oic acid triethylammonium salt, reference compound], for which the IC50 in series [1] (100 μM FA, incubation 2 h) was over 10 µM; in series [1] (100 μM FA, incubation 4 h), over 10 µM; in series [1] (100 μM FA, incubation 8 h) it was over 10 µM; in series [1] (100 μM FA, incubation 16 h), over 10 µM; in series [1] (setting [4]), over 10 µM; in series [1] (setting [5]), over 10 µM. For the same compound, the half-maximal inhibitory concentration (IC50) is over 10 µM in series [1] (setting [6]); over 10 µM in series [1] (setting [7]); over 10 µM in series [2] (100 μM FA, incubation 2 h); over 10 µM in series [2] (100 μM FA, incubation 4 h); over 10 µM in series [2] (100 μM FA, incubation 8 h); over 10 µM in series [2] (100 μM FA, incubation 16 h). Besides, the 50% inhibitory concentration (IC50) in series [2] (setting [4]), in series [2] (setting [5]), in series [2] (setting [6]) and in series [2] (setting [7]) was over 10 µM throughout. Further, the inhibition at 10 µM in series [1] (Homo sapiens, A549, 2 h, 100 μM FA, incubation 2 h) was 9%; in series [1] (Homo sapiens, A549, 2 h, No FA, incubation 2 h) it was 7%; in series [1] (Homo sapiens, A549, 4 h, 100 μM FA, incubation 4 h) it was at most 0%; in series [1] (Homo sapiens, A549, 4 h, No FA, incubation 4 h), at most 0%; in series [1] (Homo sapiens, A549, 8 h, 100 μM FA, incubation 8 h) it was at most 0%; in series [1] (Homo sapiens, A549, 8 h, No FA, incubation 8 h) it was at most 0%. In addition, the inhibition at 10 µM in series [1] (Homo sapiens, A549, 16 h, 100 μM FA, incubation 16 h) is 3.5%; in series [1] (Homo sapiens, A549, 16 h, No FA, incubation 16 h) it was at most 0%; in series [2] (Homo sapiens, 2 h, 100 μM FA, incubation 2 h), 1%; in series [2] (Homo sapiens, 2 h, No FA, incubation 2 h), at most 0%; in series [2] (Homo sapiens, 4 h, 100 μM FA, incubation 4 h), at most 0%; in series [2] (Homo sapiens, 4 h, No FA, incubation 4 h), at most 0%. The inhibition at 10 µM in series [2] (Homo sapiens, 8 h, 100 μM FA, incubation 8 h) is at most 0%; in series [2] (Homo sapiens, 8 h, No FA, incubation 8 h), at most 0%; in series [2] (Homo sapiens, 16 h, 100 μM FA, incubation 16 h) it was 2%; in series [2] (Homo sapiens, 16 h, No FA, incubation 16 h), 1%.
Consider `CC[C@]1(O)CC2CN(CCc3c([nH]c4ccccc34)[C@@](C(=O)OC)(c3cc4c(cc3OC)N(C)[C@H]3[C@@](O)(C(=O)OC)[C@H](O[Si]5(CCCCC(=O)OCc6ccccc6)CCCC5)[C@]5(CC)C=CCN6CC[C@]43[C@@H]65)C2)C1` (stereo partly drawn) [Example 12, (3aR,3a^1R,4R,5S,10bR)-methyl 4-((1-(5-(benzyloxy)-5-oxopentyl)silolan-1-yl)oxy)-3a-ethyl-9-((5S,7R,9S)-5-ethyl-5-hydroxy-9-(methoxycarbonyl)-2,4,5,6,7,8,9,10-octahydro-1H-3,7-methano[1]azacycloundecino[5,4-b]indol-9-yl)-5-hydroxy-8-methoxy-6-methyl-3a,3a^1,4,5,5a,6,11,12-octahydro-1H-indolizino[8,1-cd]carbazole-5-carboxylate], for which the “hydrolysis (e.g. parent vinca) at pH 7.4” value in series [3] is recorded as “No evidence of hydrolysis”.
Consider `CCC1(O)CC2CN(CCc3c([nH]c4ccccc34)C(C(=O)OC)(c3cc4c(cc3OC)N(C)C3C(O)(C(=O)OC)C(O[Si]5(CCCCC(=O)NCCOCCOCCNC(=O)CCC(NC(=O)c6ccc(NCc7cnc8nc(N)nc(O)c8n7)cc6)C(=O)O)CCCCC5)C5(CC)C=CCN6CCC43C65)C2)C1` (centres unmarked) [Example 20], for which the “Percentage inhibition at the highest concentration tested (10 μM)” value was 44% in series [1] (100 μM FA, incubation 2 h); 20% in series [1] (No FA, incubation 2 h); 46% in series [1] (No FA, incubation 4 h). Also, the 50% inhibitory concentration (IC50) was over 10 µM in series [1] (100 μM FA, incubation 2 h); 6.6 µM in series [1] (100 μM FA, incubation 4 h); 4.1 µM in series [1] (100 μM FA, incubation 8 h); 1.4 µM in series [1] (100 μM FA, incubation 16 h); over 10 µM in series [1] (No FA, incubation 2 h); over 10 µM in series [1] (No FA, incubation 4 h). The half-maximal inhibitory concentration (IC50) in series [1] (No FA, incubation 8 h) stood at 6.7 µM; in series [1] (No FA, incubation 16 h), 1.4 µM; in series [2] (100 μM FA, incubation 2 h), 4.2 µM; in series [2] (100 μM FA, incubation 4 h) it was 3.4 µM; in series [2] (100 μM FA, incubation 8 h), 3.1 µM; in series [2] (100 μM FA, incubation 16 h), 1.5 µM. Also, the half-inhibitory concentration (IC50) in series [2] (No FA, incubation 2 h) worked out at 3.5 µM; in series [2] (No FA, incubation 4 h), 2.6 µM; in series [2] (No FA, incubation 8 h) it was 1.8 µM; in series [2] (No FA, incubation 16 h), 0.3 µM.
`CC[C@]1(O)CC2CN(CCc3c([nH]c4ccccc34)[C@@](C(=O)OC)(c3cc4c(cc3OC)N(C)[C@H]3[C@@](O)(C(=O)OC)[C@H](O[Si]5(CCCCC(=O)NCCOCCOCCOCCNC(=O)CC[C@H](NC(=O)c6ccc(NCc7cnc8nc(N)nc(O)c8n7)cc6)C(=O)O)CCCCC5)[C@]5(CC)C=CCN6CC[C@]43[C@@H]65)C2)C1` (some centres unmarked) [Example 21]: the “Percentage inhibition at the highest concentration tested (10 μM)” value in series [1] (100 μM FA, incubation 2 h) amounted to 40%; in series [1] (No FA, incubation 2 h) it was 8%; in series [1] (No FA, incubation 4 h) it was 24%; in series [1] (No FA, incubation 8 h), 47%. In addition, the 50% inhibitory concentration (IC50) in series [1] (100 μM FA, incubation 2 h) is over 10 µM; in series [1] (100 μM FA, incubation 4 h), 8.6 µM; in series [1] (100 μM FA, incubation 8 h), 5.3 µM; in series [1] (100 μM FA, incubation 16 h), 1.8 µM; in series [1] (No FA, incubation 2 h), over 10 µM; in series [1] (No FA, incubation 4 h), over 10 µM. In addition, the IC50 was over 10 µM in series [1] (No FA, incubation 8 h); 4.4 µM in series [1] (No FA, incubation 16 h); 6 µM in series [2] (100 μM FA, incubation 2 h); 4 µM in series [2] (100 μM FA, incubation 4 h); 3.1 µM in series [2] (100 μM FA, incubation 8 h); 1.7 µM in series [2] (100 μM FA, incubation 16 h). In addition, the 50% inhibitory concentration (IC50) amounted to 4.1 µM in series [2] (No FA, incubation 2 h); 3.1 µM in series [2] (No FA, incubation 4 h); 2.3 µM in series [2] (No FA, incubation 8 h); 1.5 µM in series [2] (No FA, incubation 16 h).
